The text below walks through data of ChEMBL document CHEMBL1150722, “Inhibitory effects of various flavonoids isolated from leaves of persimmon on angiotensin-converting enzyme activity” (J Nat Prod, 1987).

Assay [1] concerns the target T1, Angiotensin-converting enzyme (Rattus norvegicus) (UniProt P47820).
T1 sequence (whole entry): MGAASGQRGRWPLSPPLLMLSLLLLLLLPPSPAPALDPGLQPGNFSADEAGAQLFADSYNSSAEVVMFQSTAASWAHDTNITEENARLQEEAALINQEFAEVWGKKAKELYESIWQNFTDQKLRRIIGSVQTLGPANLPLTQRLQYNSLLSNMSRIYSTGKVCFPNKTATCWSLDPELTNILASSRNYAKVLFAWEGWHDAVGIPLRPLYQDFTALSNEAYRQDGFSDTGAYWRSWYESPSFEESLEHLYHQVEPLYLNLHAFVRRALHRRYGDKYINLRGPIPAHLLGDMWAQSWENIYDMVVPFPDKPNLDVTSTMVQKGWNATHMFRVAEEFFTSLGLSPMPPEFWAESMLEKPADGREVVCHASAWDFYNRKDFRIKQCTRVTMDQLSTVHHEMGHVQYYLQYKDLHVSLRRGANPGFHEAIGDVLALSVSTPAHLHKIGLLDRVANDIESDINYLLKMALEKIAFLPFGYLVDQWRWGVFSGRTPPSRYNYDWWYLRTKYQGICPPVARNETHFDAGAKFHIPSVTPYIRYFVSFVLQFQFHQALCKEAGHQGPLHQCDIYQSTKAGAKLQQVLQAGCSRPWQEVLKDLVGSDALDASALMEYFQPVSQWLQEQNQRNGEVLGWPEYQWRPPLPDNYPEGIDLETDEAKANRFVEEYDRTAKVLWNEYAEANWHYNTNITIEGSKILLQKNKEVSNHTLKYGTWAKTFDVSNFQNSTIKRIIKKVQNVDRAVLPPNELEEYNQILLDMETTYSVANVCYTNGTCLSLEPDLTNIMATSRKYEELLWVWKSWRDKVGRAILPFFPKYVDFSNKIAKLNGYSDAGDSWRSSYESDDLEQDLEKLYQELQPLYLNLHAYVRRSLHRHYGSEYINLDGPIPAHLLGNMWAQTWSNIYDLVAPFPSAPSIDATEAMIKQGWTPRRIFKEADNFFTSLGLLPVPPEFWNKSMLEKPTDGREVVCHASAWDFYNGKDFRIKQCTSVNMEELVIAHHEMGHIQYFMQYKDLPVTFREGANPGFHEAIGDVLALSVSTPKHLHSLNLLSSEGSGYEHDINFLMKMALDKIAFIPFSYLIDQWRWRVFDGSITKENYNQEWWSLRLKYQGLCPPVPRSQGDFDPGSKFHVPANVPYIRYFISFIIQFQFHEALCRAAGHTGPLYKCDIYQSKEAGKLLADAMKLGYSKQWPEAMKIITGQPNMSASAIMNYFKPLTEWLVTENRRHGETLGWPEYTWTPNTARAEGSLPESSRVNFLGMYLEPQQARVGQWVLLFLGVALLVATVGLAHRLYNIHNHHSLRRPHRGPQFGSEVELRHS
As to the kind of experiment: Inhibition of rat lung ACE at 150 ug/ml relative to control.

The target in assay [2] is T1, Angiotensin-converting enzyme (Rattus norvegicus). In words: Inhibition of rat lung ACE at 225 ug/ml relative to control.
Assay [3] has the same target. As to the kind of experiment: Inhibition of rat lung ACE at 38 ug/ml relative to control.
Assay [4] shares this target. As to the kind of experiment: Inhibition of rat lung ACE at 56 ug/ml relative to control.
The target is the same in assay [5]. As to the kind of experiment: Inhibition of rat lung ACE at 75 ug/ml relative to control.
Assay [6] shares this target. As to the kind of experiment: Inhibition of rat lung ACE at 113 ug/ml relative to control.
For assay [7] the target is unchanged. In words: Inhibition of rat lung ACE at 300 ug/ml relative to control.
Assay [8] addresses T2, Angiotensin-converting enzyme (Rattus norvegicus, UniProt P47820).
T2 sequence (P47820 whole entry): T1 sequence (whole entry)
In words: Inhibition of rat lung ACE.

Turning to `O=c1c(O[C@@H]2O[C@H](CO)[C@@H](O)[C@H](O)[C@H]2O)c(-c2ccc(O)c(O)c2)oc2cc(O)cc(O)c12`, the inhibition is 19% in assay [1]; 19% in assay [2]; 0% in assay [3]; 0% in assay [4]; 9% in assay [5]; 3% in assay [6].
As to `O=c1c(O[C@@H]2O[C@H](CO)[C@@H](O)[C@H](O)[C@H]2O)c(-c2ccc(O)cc2)oc2cc(O)cc(O)c12` [ASTRAGALIN], the inhibition came to 53% in assay [1]; 28% in assay [2]; 67% in assay [7]; 0% in assay [3]; 2% in assay [4]; 22% in assay [5]. This molecule returned an inhibition in assay [6] of 31%. The same molecule had an IC50 in assay [8] of 401 µM.
Consider `O=C(O[C@H]1[C@H](Oc2c(-c3ccc(O)cc3)oc3cc(O)cc(O)c3c2=O)O[C@H](CO)[C@@H](O)[C@@H]1O)c1cc(O)c(O)c(O)c1`, for which the inhibition came to 35% in assay [1]; 39% in assay [2]; 53% in assay [7]; 3% in assay [3]; 6% in assay [4]; 15% in assay [5]. The molecule further registered an inhibition in assay [6] of 35%. This molecule also had an IC50 in assay [8] of 466 µM.
Take `O=C(O[C@H]1[C@H](Oc2c(-c3ccc(O)c(O)c3)oc3cc(O)cc(O)c3c2=O)O[C@H](CO)[C@@H](O)[C@@H]1O)c1cc(O)c(O)c(O)c1`: the inhibition in assay [1] came to 39%; in assay [2], 34%; in assay [7], 48%; in assay [3], 10%; in assay [4] it was 12%; in assay [5], 18%. In assay [6], this molecule had an inhibition of 39%.

The term inhibition denotes the percentage by which the read-out fell short of the control. A higher inhibition goes with a strong effect. As a reminder, the IC50 is the point on the concentration scale where inhibition reaches its midpoint.
